In ChEMBL document CHEMBL1201862, “PubChem BioAssay data set” (2004):
The source made the active and inactive calls.

What was measured:
[1] = biological target: 26S proteasome non-ATPase regulatory subunit 14 (Homo sapiens, UniProt O00487); experiment: inhibition of proteasome subunit RPN11 – biochemical, fluorescence polarization, uHTS hits, confirmation (AID 602368); assay type: functional
[2] = biological target: 72 kDa type IV collagenase (Homo sapiens, UniProt P08253); experiment: Dose Response validation of uHTS RPN11 inhibitor hits using a MMP-2 Fluorescence assay.; assay type: functional
Prothrombin = Prothrombin (Bos taurus, UniProt P00735); experiment: thrombin inhibition, dose response, biochemical, fluorescence polarization, uHTS hits (AID 602369); assay type: functional
Steroidogenic factor 1 = Steroidogenic factor 1 (Homo sapiens, UniProt Q13285); experiment: Counterscreen for inverse agonists of the liver receptor homolog-1 (LRH-1; NR5A2): Luminescence-based cell-based high throughput dose response assay to identify inverse agonists of the Steroidogenic Factor 1 Nuclear Receptor (SF1; NR5A1).; assay type: functional
[3] = biological target: Nuclear receptor subfamily 5 group A member 2 (Homo sapiens, UniProt O00482); assay type: functional, cell-based;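 further: HEK293T cells transfected with LRH-1 and a StAR promoter luciferase reporter; potency for inhibitors that lower LRH-1 driven reporter light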
[4] = StAR promoter reporter inhibition counter-screen, dose response, counter-screen for LRH-1 inverse agonist project, cell-based, luminescence, luciferase reporter (AID 651969); assay type: functional
[5] = biological target: T1, Corticotropin-releasing factor receptor 2/Corticotropin-releasing factor-binding protein (Homo sapiens, UniProt P24387+Q13324); experiment: activators of CRF receptor 2 with binding protein – uHTS hits, confirmation (AID 602473); assay type: functional; details: read-out: EC50_Mean
T1 sequence (Q13324 whole entry): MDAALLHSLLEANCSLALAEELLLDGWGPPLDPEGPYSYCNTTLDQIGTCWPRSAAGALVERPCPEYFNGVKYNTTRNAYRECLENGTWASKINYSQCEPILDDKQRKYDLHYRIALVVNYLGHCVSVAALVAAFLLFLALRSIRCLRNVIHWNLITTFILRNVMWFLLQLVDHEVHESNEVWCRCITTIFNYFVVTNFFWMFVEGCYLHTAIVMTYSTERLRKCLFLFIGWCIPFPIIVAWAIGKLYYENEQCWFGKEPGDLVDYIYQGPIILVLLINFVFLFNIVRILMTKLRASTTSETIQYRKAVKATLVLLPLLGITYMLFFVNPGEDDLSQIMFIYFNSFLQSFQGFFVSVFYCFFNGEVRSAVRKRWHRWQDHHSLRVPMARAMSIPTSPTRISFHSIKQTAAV
T1 sequence (P24387 whole entry): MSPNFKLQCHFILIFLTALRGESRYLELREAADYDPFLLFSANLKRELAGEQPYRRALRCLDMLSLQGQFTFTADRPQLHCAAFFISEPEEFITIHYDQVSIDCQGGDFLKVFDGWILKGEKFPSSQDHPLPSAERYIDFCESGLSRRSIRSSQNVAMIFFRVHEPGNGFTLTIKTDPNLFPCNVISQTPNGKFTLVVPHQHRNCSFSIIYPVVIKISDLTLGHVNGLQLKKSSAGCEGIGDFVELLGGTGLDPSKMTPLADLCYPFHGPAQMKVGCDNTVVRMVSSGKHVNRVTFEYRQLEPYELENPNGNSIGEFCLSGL

[6] = CRF-BP/CRF-R2 complex antagonists, dose response, cell-based, uHTS hits, 384-well (AID 651639); assay type: functional, Homo sapiens; details: read-out: IC50_Mean
[7] = biological target: T1, Corticotropin-releasing factor receptor 2/Corticotropin-releasing factor-binding protein; experiment: Dose Response confirmation of uHTS hits for small molecule antagonists of the CRF-binding protein and CRF-R2 receptor complex.; assay type: functional; details: read-out: IC50_Mean
[8] = biological target: T2, Rac GTPase-activating protein 1 (Homo sapiens, UniProt Q9H0H5); experiment: MgcRacGAP GTPase-activating activity inhibitors, confirmation, biochemical, ADP Hunter fluorescence, primary and confirmatory (AID 624330); assay type: functional
T2 sequence (Q9H0H5 whole entry): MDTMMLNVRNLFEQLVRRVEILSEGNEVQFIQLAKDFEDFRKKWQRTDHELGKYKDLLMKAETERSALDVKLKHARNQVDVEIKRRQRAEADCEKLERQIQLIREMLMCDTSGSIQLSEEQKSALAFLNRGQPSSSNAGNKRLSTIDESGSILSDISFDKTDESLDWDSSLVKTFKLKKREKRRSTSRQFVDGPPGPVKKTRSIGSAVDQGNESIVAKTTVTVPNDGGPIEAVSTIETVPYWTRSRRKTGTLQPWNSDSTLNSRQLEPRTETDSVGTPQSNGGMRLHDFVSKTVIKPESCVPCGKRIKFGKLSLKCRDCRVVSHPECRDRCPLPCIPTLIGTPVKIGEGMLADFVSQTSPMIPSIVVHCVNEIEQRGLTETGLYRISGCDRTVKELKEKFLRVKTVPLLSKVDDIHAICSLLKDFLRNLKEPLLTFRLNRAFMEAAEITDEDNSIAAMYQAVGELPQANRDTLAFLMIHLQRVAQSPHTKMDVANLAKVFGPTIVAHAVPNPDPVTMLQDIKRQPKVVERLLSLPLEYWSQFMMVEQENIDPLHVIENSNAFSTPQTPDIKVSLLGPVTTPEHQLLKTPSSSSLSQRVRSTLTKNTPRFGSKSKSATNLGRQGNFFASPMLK

Cytochrome P450 2C9 = Cytochrome P450 2C9 (Homo sapiens, UniProt P11712)
Cytochrome P450 1A2 = biological target: T3, Cytochrome P450 1A2 (Homo sapiens, UniProt P05177);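 further: PubChem cytochrome P450 panel assay, CYP1A2 panel member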
T3 sequence (P05177 whole entry): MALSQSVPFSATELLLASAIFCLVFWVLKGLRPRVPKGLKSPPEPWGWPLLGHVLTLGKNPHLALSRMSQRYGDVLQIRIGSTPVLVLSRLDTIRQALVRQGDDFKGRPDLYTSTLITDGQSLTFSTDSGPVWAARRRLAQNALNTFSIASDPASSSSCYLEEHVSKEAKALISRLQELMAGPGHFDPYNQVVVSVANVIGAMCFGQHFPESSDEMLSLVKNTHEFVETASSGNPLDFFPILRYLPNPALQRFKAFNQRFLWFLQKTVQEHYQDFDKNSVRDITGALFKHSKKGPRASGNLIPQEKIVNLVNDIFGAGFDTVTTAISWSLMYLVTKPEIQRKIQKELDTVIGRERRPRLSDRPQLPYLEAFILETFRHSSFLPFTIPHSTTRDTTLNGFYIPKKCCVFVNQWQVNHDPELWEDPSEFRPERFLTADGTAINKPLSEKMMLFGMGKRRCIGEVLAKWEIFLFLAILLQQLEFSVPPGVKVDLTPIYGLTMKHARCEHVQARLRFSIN

Escherichia coli = experiment: microbe, parasite or virus in culture
[9] = HEp-2 cell cytotoxicity, dose response, cytotoxicity control for RSV inhibitor project, HTS (AID 2410); assay type: functional; details: human respiratory syncytial virus
[10] = biological target: Ras and Rab interactor 1/Tyrosine-protein kinase ABL1 (Homo sapiens, UniProt P00519+Q13671); assay type: functional;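 further: biochemical TR-FRET dose-response test measuring inhibition of binding between Rin1 and Abl proteins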
[11] = AlphaScreen signal interference compounds, dose response, artefact control for ARNT-TACC3 interaction inhibitor project, biochemical, luminescence, cherry-pick (AID 651705); assay type: functional;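 further: AlphaScreen bead proximity signal that flags compounds interfering with the detection technology; potency reflects signal decrease which marks the compound as an assay artifact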
[12] = biological target: T4, Zinc finger protein mex-5 (Caenorhabditis elegans, UniProt Q9XUB2); experiment: MEX-5/TCR-2 RNA interaction inhibitors, dose response, biochemical, C. elegans, fluorescence polarization (AID 1960)
T4 sequence (Q9XUB2 whole entry): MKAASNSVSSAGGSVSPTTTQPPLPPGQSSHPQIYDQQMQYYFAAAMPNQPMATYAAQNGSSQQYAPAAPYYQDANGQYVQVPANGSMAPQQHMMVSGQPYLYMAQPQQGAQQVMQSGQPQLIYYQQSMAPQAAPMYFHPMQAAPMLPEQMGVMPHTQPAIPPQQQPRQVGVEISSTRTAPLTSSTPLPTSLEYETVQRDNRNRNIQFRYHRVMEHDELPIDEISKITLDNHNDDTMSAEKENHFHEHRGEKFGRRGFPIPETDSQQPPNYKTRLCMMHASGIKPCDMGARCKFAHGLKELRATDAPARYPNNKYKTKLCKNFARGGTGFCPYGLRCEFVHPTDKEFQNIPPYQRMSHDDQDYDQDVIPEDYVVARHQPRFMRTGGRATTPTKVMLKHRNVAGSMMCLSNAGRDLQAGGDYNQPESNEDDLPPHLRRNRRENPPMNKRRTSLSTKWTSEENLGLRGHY

[13] = biological target: T5, RNA-binding protein pos-1 (Caenorhabditis elegans, UniProt G5EF15); experiment: inhibitors of POS-1/mex-3 RNA binding, dose response, biochemical, fluorescence polarization (AID 1964);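 further: purified POS-1 fused to maltose binding protein made in E. coli; potency of compounds blocking POS-1 binding to fluorescent RNA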
T5 sequence (G5EF15 whole entry): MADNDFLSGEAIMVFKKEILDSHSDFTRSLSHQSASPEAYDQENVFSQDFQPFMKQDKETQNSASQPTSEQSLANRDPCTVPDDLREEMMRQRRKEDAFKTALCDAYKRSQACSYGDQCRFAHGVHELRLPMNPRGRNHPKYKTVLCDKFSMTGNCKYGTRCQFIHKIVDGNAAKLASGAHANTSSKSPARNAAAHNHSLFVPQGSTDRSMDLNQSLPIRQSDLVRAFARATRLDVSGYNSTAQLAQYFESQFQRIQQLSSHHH

[14] = biological target: T6, Hepatocyte nuclear factor 4-alpha (Homo sapiens, UniProt P41235); assay type: functional, cell-based;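 further: biochemical luminescence-based dose-response counterscreen measuring inhibition of HNF4 dimerization, run alongside a screen for blockers of ABHD5–perilipin-5 interaction; split luciferase complementation of HNF4 fusion proteins in cell lysate measuring dimerization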
T6 sequence (P41235 whole entry): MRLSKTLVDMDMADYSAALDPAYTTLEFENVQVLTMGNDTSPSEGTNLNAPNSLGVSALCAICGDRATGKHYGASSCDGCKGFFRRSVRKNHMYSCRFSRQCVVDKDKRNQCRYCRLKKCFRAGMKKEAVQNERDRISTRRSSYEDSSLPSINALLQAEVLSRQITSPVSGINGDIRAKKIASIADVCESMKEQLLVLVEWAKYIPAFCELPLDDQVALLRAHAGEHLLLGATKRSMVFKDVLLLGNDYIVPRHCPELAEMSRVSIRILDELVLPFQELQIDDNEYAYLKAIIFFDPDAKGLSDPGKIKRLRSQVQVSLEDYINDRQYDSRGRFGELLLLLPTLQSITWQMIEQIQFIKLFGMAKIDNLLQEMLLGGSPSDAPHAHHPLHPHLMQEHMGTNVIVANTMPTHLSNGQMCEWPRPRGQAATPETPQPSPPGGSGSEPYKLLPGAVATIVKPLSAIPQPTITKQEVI

[15] = Counterscreen for inhibitors of Trypanosoma brucei methionyl tRNA synthetase (MetRS): Luminescence-based cell-based high throughput dose response assay to identify compounds that are cytotoxic to Jurkat human T lymphocyte cells.; assay type: functional
[16] = HeLa cell cytotoxicity, dose response, cytotoxicity control for MgcRacGAP inhibitor project (AID 624300); assay type: functional

Sequence of Steroidogenic factor 1 (Q13285 whole entry): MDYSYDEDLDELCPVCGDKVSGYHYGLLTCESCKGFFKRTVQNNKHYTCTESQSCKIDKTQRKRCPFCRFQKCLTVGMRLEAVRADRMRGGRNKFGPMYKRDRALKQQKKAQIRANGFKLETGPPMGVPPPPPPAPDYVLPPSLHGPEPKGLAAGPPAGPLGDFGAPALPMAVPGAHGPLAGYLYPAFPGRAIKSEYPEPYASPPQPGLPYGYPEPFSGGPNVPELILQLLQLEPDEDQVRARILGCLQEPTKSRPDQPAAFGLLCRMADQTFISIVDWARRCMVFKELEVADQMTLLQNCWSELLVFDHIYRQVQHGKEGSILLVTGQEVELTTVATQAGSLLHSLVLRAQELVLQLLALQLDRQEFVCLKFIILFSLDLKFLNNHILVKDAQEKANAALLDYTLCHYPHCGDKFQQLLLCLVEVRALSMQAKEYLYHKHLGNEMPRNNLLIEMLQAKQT
Sequence of Nuclear receptor subfamily 5 group A member 2 (O00482 whole entry): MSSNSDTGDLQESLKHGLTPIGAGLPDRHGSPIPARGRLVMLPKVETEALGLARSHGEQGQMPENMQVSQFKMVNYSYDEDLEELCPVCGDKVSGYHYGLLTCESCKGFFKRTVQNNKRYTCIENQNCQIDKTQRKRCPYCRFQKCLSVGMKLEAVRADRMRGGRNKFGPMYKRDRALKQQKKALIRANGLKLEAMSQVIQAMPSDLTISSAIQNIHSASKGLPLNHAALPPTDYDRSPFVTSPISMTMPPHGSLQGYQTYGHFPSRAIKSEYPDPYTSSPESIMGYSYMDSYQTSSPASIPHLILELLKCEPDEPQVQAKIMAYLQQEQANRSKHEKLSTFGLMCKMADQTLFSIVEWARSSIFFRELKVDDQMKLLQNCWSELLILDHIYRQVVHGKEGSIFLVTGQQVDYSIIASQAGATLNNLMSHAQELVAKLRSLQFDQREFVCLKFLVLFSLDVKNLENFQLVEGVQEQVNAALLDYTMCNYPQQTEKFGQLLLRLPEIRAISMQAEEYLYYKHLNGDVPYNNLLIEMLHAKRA
Sequence of 26S proteasome non-ATPase regulatory subunit 14 (O00487 whole entry): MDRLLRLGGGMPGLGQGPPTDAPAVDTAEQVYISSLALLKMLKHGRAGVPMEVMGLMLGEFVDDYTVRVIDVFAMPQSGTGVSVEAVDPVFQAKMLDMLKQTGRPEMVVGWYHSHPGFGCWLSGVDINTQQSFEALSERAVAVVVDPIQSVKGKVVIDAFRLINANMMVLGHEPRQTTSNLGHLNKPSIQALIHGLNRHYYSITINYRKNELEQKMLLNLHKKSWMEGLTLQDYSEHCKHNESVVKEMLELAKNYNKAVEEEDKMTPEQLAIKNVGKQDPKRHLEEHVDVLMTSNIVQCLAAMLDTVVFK
Sequence of 72 kDa type IV collagenase (P08253 whole entry): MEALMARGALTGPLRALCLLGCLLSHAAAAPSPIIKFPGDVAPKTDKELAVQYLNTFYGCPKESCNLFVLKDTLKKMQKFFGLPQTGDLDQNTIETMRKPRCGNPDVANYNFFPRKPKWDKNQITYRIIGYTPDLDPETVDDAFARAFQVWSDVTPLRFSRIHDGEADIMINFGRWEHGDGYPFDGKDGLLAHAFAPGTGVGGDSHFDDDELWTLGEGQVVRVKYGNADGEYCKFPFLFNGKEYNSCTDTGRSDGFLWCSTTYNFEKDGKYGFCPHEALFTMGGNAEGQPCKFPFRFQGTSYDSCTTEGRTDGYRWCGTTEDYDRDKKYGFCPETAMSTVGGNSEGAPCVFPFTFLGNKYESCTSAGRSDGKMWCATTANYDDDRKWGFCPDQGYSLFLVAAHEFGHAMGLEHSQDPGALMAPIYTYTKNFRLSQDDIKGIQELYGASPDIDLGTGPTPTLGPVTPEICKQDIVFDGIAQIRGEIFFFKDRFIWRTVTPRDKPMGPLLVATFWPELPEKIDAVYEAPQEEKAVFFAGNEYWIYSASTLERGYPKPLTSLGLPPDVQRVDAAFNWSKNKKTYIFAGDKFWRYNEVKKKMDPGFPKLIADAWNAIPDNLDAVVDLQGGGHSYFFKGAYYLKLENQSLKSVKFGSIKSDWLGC
Sequence of Ras and Rab interactor 1/Tyrosine-protein kinase ABL1 (P00519 whole entry): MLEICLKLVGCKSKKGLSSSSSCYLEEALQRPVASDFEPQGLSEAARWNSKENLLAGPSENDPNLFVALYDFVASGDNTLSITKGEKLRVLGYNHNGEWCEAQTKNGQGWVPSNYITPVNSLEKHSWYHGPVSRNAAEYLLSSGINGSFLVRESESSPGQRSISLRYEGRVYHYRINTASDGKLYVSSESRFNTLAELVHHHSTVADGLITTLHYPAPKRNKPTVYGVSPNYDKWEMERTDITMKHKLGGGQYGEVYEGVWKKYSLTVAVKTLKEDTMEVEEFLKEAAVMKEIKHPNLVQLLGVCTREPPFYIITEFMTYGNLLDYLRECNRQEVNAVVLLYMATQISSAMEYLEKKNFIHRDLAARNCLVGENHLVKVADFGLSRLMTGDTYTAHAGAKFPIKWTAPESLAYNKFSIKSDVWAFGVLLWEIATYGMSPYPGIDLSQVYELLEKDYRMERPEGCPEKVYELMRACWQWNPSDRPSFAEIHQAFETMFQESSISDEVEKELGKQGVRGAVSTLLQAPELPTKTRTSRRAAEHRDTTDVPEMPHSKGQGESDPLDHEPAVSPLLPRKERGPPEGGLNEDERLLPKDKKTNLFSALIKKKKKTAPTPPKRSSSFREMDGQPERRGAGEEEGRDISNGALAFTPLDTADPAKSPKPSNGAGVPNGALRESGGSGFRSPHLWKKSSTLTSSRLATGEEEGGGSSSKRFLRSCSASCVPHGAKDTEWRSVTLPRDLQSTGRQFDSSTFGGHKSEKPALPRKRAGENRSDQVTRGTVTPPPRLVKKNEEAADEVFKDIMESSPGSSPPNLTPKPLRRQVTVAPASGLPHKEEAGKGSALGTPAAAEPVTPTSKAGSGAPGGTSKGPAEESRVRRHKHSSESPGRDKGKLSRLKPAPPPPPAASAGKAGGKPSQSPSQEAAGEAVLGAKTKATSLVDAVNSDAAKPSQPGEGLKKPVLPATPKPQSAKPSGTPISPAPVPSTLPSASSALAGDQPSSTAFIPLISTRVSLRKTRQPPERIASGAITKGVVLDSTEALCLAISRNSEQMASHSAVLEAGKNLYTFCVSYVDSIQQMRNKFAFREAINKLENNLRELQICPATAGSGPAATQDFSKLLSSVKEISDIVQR
Sequence of Ras and Rab interactor 1/Tyrosine-protein kinase ABL1 (Q13671 whole entry): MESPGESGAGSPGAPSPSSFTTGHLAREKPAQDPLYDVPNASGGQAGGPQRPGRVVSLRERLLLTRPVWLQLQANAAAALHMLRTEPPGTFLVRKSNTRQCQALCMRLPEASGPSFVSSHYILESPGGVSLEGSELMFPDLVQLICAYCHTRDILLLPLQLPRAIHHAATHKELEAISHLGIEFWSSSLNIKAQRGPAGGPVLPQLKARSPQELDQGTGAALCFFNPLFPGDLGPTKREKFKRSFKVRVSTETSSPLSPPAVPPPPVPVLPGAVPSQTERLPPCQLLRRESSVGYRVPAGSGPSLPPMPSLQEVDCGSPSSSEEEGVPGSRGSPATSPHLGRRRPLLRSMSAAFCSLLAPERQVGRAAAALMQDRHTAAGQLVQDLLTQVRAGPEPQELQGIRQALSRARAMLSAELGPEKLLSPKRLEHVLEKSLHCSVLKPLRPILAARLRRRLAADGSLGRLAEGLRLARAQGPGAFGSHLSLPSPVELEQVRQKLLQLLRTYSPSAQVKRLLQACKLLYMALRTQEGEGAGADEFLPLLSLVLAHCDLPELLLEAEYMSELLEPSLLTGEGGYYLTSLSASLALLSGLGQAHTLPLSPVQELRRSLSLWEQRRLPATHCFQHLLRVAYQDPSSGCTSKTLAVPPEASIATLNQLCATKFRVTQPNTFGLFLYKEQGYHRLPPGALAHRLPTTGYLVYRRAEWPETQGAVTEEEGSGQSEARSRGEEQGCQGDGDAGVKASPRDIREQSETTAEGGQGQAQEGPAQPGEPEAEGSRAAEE
Sequence of Cytochrome P450 2C9 (P11712 whole entry): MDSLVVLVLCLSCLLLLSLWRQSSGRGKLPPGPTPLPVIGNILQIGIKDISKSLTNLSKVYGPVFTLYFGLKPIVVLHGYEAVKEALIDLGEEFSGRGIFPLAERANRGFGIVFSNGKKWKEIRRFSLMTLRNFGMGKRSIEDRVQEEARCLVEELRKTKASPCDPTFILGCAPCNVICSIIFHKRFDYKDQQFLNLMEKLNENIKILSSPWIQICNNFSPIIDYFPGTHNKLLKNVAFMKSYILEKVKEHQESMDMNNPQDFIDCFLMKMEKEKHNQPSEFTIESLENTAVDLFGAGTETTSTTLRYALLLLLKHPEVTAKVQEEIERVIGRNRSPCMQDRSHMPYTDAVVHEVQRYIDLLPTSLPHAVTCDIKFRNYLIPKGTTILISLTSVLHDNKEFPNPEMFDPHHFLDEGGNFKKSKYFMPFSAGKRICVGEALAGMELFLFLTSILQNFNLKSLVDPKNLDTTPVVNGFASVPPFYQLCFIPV

CCc1ccc(OCC(=O)NNC(=O)c2cc(S(=O)(=O)N(C)C)ccc2N2CCCC2)cc1
IC50 [1]: 47 µM (active) | IC50 [2]: 23.6 µM (active) | IC50 (Prothrombin): > 100 µM (inactive)

C=Cc1ccc(Cn2c(C(=O)O)c(C=O)c3ccccc32)cc1
IC50 [1]: 12.6 µM (active) | IC50 [2]: > 100 µM (inactive) | IC50 (Prothrombin): 39.1 µM (active)

COc1ccc(N2/C(=C/C(C)=O)NC(=O)c3c(C)cc(C)nc32)cc1
IC50 (Steroidogenic factor 1): 5.42 µM (active) | IC50 [3]: 8.47 µM (active) | IC50 [4]: 35.9 µM (inactive)

COC(=O)c1sc(-c2ccc(C(C)(C)C)cc2)cc1NC(=O)COCC(=O)O
EC50 [5]: > 53 µM (inactive) | IC50 [6]: > 20 µM (inactive) | IC50 [7]: 11 µM (active)

Cc1cc([N+](=O)[O-])ccc1NC(=O)CSc1nnc(C)n1C
IC50 (Steroidogenic factor 1): 11.9 µM (inactive) | IC50 [3]: 11.9 µM (inactive) | IC50 [4]: 35.8 µM (inactive)

COc1cccc(CN2CCN(Cc3cc(OC)c(OC)cc3[N+](=O)[O-])CC2)c1.O=C(O)C(=O)O
EC50 [5]: > 53 µM (inactive) | IC50 [7]: > 47.1 µM (inactive) | IC50 [8]: 56.8 µM (active) | AC50 (Cytochrome P450 2C9): inconclusive | AC50 (Cytochrome P450 1A2): 14.1 µM (inconclusive) | AC50 (Escherichia coli): > 150 µM (inactive)

Cc1nc(Nc2cccc(O)c2)c2c3c(sc2n1)CCC3
CC50 [9]: 12.7 µM (active) | IC50 [10]: > 73.5 µM (inactive)

CC(C)(C)OC(=O)N1CCC(c2cc(O)n3ncc(C(=O)NC4CCCC4)c3n2)CC1
EC50 [5]: > 53 µM (inactive) | IC50 [6]: 9.87 µM (active) | IC50 [7]: 6.5 µM (active)

O=C(NNc1ccccn1)C(=O)NNS(=O)(=O)c1ccc(F)cc1
AC50 [11]: 122 µM (active) | EC50 [12]: > 300 µM (inconclusive) | EC50 [13]: > 300 µM (not active)

Oc1nc2ccccc2n1C1CCN(C(c2nnnn2-c2ccc3c(c2)OCCO3)C2CC2)CC1 (stereo not given)
IC50 [10]: 40.9 µM (inactive)

COc1ccc(OCc2cn(CC(=O)c3ccc(O)cc3)nn2)cc1
IC50 [14]: 6 µM (active)

O=C(Nc1ccccc1C(=O)Nc1nccs1)c1ccccc1
IC50 (Steroidogenic factor 1): 9.51 µM (active) | IC50 [3]: 9.83 µM (active) | IC50 [4]: 26.4 µM (inactive)

Cc1cccc(C)c1NC(=O)C(c1ccc(C(F)(F)F)cc1)n1c(=O)c(-c2ccco2)nc2ccccc21 (stereo not given)
IC50 [14]: 2.56 µM (active)

O=S(=O)(N[C@@H]1CC[C@H](CCn2cc(-c3ccccn3)nn2)O[C@@H]1CO)c1cccc(F)c1
AC50 [11]: 79.4 µM (active)

O=C(N[C@@H]1CC[C@@H](CCn2cc(-c3ccccn3)nn2)O[C@H]1CO)c1ccncc1
AC50 [11]: 72.8 µM (active)

O=C(OCC(=O)c1c[nH]c2ccccc12)c1ccc(OC(F)F)cc1
IC50 [15]: 83.3 µM (inactive)

COc1cc(/C=N/Nc2nn3cnnc3c3ccccc23)ccc1O
IC50 [8]: 64.2 µM (active) | CC50 [16]: 100 µM (active)
